In US20250099455A1, “TREATMENT FOR CONGESTIVE HEART FAILURE” (FibroGen, Inc., priority 2022, published 2025):
Entries after “also recorded” stand apart in the source; their conditions may differ.

Tests used:
[1] = test system: permanent myocardial ischemia induced HF; experiment: Permanent myocardial ischemia induced HF; type: in vivo, rat; conditions: 6, 20 mg/kg daily, 4 weeks; at both doses
[2] = Preliminary PK profile in dogs; type: in vivo, dog
Excerpt: The preliminary PK profile of the compound of Formula I in dogs was studied and the results are shown in FIG. 19 and summarized in the following Table.

[3] = test system: congestive heart failure following myocardial ischemia; experiment: Acute myocardial ischemia induced HF, dose response / MED; type: in vivo, rat
Description: • Male Sprague Dawley rats • Ligation of left coronary artery for 30 minutes followed by reperfusion • Post-ligation recovery for 28 days • Cardiac function 28 days after ischemia-reperfusion using a Millar pressure-volume catheter inserted in the left ventricle via the carotid artery • Record pressure-volume loops over several cardiac cycles and derived cardiac function parameters Dose response with the compound of Formula I on cardiac function in congestive heart failure (CHF) was studied by inducing CHF following myocardial ischemia for the determination of Minimum Effective Dose (MED) 2 mg/kg, as shown in FIGS. 10A and 10B.

[4] = test system: congestive heart failure subsequent to myocardial infarction; experiment: Rat CHF subsequent to myocardial infarction, every other day dosing (Example 1); type: in vivo
Description: (§1) The effect of the compound of Formula I on cardiac function in congestive heart failure (CHF) was studied by inducing CHF subsequent to myocardial infarction (MI). Three groups of rats (n=12) were subjected to MI by 30 minute ligation of the left coronary artery followed by reperfusion. In a sham group, rats underwent a similar surgical procedure except that the left coronary artery was not occluded. Treatment with the compound of Formula I was initiated 2 days after reperfusion. In the MI groups, rats were dosed orally every other day with vehicle, 6 mg/kg or 20 mg/kg compound from day 2 to day 26 post MI. In the sham group, rats were dosed with vehicle on the same schedule. At 28 days post-MI, cardiac function, heart weight, and complete blood count (CBC) were measured. Histomorphometric analysis was performed on cardiac sections to quantify collagen deposition with picrosirius red staining (PSR), remodeling with hematoxylin and eosin staining and blood vessel number with immunohistochemistry for smooth muscle α-actin. • Male Sprague Dawley rats • Ligation of left coronary artery for 30 minutes followed by reperfusion • Post-ligation recovery for 28 days • Cardiac function 28 days after ischemia-reperfusion using a Millar pressure-volume catheter inserted in the left ventricle via the carotid artery • Record pressure-volume loops over several cardiac cycles and derived cardiac function parameters

[5] = test system: acute myocardial ischemia; experiment: Acute cardioprotection: infarct size post-acute myocardial ischemia; type: in vivo
[6] = test system: diastolic dysfunction HF in obese ZSF1 rats; experiment: ZSF1 model of heart failure with preserved ejection fraction (HFpEF), monotherapy; type: in vivo, rat
Excerpt: This study determined the effects of the compound of Formula I on cardiac function after 16 weeks of treatment in male obese ZSF1 rats.
Lean ZSF1 rats were used as controls.
The obese ZSF1 rat was developed by crossing diabetic Zucker fatty rats with spontaneously hypertensive heart failure (SHHF) rats
• Hypertension • Impaired renal function • Obesity • Type 2 diabetes • Insulin resistance, hyperinsulinemia • Hypertriglyceridemia, • Hypercholesterolemia

[7] = test system: congestive heart failure subsequent to myocardial infarction; experiment: Rat CHF subsequent to myocardial infarction, daily dosing (Example 4); type: in vivo
Description: as §1, with “A similar experiment was carried out in which rats were dosed more frequently with a lower dose. Animals were dosed orally every day with vehicle, 2 mg/kg, 6 mg/kg or 20 mg/kg compound from day 2 to day 26 post MI. […] The” for “The”, “Four” for “Three”, “daily” for “every other day”, “vehicle, 2 mg/kg,” for “vehicle,”, “measured.” for “measured. Histomorphometric analysis was performed on cardiac sections to quantify collagen deposition with picrosirius red staining (PSR), remodeling with hematoxylin and eosin staining and blood vessel number with immunohistochemistry for smooth muscle α-actin.”

[8] = test system: coronary artery (isolated heart preparation); experiment: Coronary artery vasodilation in an isolated heart preparation
[9] = dog, in vivo, dogs, preliminary
[10] = 0.2, 0.6, 2 mg/kg daily, 4 weeks, effect at 2 mg/kg
[11] = 6 or 20 mg/kg oral QOD day 2-26 post MI, 28 days post-MI
[12] = 6 or 20 mg/kg oral QOD day 2-26 post MI, 28 days post-MI, vs vehicle
[13] = histomorphometry of left ventricle, QOD dosing, 28 days
[14] = 2, 6 or 20 mg/kg oral daily day 2-26 post MI, 28 days post-MI
[15] = 2, 6 or 20 mg/kg oral daily day 2-26 post MI, 28 days post-MI, vs vehicle

In the case of `CC(C)(CC(=O)O)NC(=O)c1nc(C#N)c2cc(Oc3ccccc3)ccc2c1O` [Formula I, 3-[(1-cyano-4-hydroxy-7-phenoxy-isoquinoline-3-carbonyl)-amino]-3-methyl-butyric acid], the cardiac hypertrophy [1] is reported as “Non-significant reduction in cardiac”, the collagen deposition [1] is reported as “Non-significant reduction in cardiac” and the “Sex difference in PK” value ([2]; dog) is reported as “No”. The Dose proportional ([2]; dog, 10-60 mg/kg) was “Yes”, the “CL” value ([2]; dog, PK summary table) was 4.2 ± 0.683 mL/min/kg and the half-life ([2]; dog, in vivo, PK summary table) was 11 ± 2 h. For the same molecule, the bioavailability ([2]; dog, in vivo, po, dogs, read-out: Oral bioavailability (Oral % F)) was roughly 25%, the AUC(0-inf) [2, 9] was 10200 ± 3300 ng·h/mL and the AUC(0-t) [2, 9] was 10200 ± 3300 ng·h/mL. The Cmax [2, 9] was 2600 ± 1900 ng/mL, the Tmax [2, 9] was 0.8 ± 0.4 h and the clearance [2, 9] was 4.2 mL/min/kg. The half-life [2, 9] was 11.3 ± 1.8 h, the Vd ([2]; dog, in vivo, dogs, preliminary, read-out: Vss) was 0.249 ± 0.073 L/kg and the Dose proportional ([2]; dog, up to 150 mg/kg) was “less than dose”. For the same molecule, the “Accumulation (after multiple dosing)” value ([2]; dog, no data, expected based on T1/2) was “some acc based”, the “Vss relative to plasma volume” value ([2]; dogs) was “higher than plasma volume” and the “Clearance in dogs relative to CL in rats” value ([2]; dogs vs rats) was 5-10 ×. For the same molecule, the Tmax ([2]; in vivo, oral, dog, PK summary table) was roughly 1 h, the cardiac hypertrophy [3, 10] was “Significant reduction in cardiac” and the diastolic function [3, 10] was “hypertrophy and improved systolic”. For the same molecule, the systolic function [3, 10] was “hypertrophy and improved systolic”, the “Minimum Effective Dose (MED)” value ([3]; cardiac function in CHF following myocardial ischemia) was 2 mg/kg and the collagen deposition ([4]; 6, 20 mg/kg QOD, 4 weeks) was “reduced; also recorded: reduction in cardiac hypertrophy”. For the same molecule, the ESPVR slope [4, 11] was “normalized”, the circulating hemoglobin level [4, 11] was “did not produce a concomitant significant increase; also recorded: without any concomitant rise” and the “other CBC parameters” value [4, 11] was “did not produce a concomitant significant increase in circulating hemoglobin level or have a significant effect”. For the same molecule, the arterial elastance [4, 12] was “significantly improved”, the cardiac hypertrophy [4, 12] was “significantly improved; also recorded: significant improvement; also recorded: reduced; also recorded: reduction in cardiac hypertrophy” and the cardiac output [4, 12] was “significantly improved; also recorded: significant improvement”. For the same molecule, the ejection fraction [4, 12] was “significantly improved; also recorded: significant improvement; also recorded: improved at both doses)”, the end-diastolic pressure [4, 12] was “significantly improved” and the end-systolic pressure [4, 12] was “significantly improved”. The end-systolic volume [4, 12] was “significantly improved; also recorded: significant improvement”, the relaxation time [4, 12] was “significantly improved; also recorded: significant improvement” and the stroke volume [4, 12] was “significantly improved; also recorded: significant improvement”. The stroke work [4, 12] was “significantly improved; also recorded: significant improvement”, the cardiac contractility ([4]; every day or every other day for 28 days) was “significant improvement” and the “hypervascularization in the peri-infarct area” value [4, 13] was “significant reduction”. For the same molecule, the “left ventricular wall thinning / wall thickness” value [4, 13] was “prevention of ventricular wall thinning; also recorded: preserved”, the infarct size [5] was “reduced; also recorded: dose-dependent reducing affect” and the hypertension ([6]; 20 mg/kg QOD, 16 weeks) was “Significant stabilization of”. The diastolic function ([6]; 20 mg/kg QOD, 16 weeks, end-diastolic pressure, left atrium weight, relaxation time, dp/dt minimum) was “improved; also recorded: Significant improvement in”, the “blood pressure (mean, diastolic, systolic)” value ([6]; monotherapy) was “normalized” and the collagen deposition ([7]; 2, 6, 20 mg/kg daily, 4 weeks) was “Significant reduction in cardiac”. For the same molecule, the diastolic function ([7]; 2, 6, 20 mg/kg daily, 4 weeks) was “deposition, improvement in systolic”, the systolic function ([7]; 2, 6, 20 mg/kg daily, 4 weeks) was “deposition, improvement in systolic” and the circulating hemoglobin level [7, 14] was “did not produce a concomitant significant increase; also recorded: without any concomitant rise”. For the same molecule, the “other CBC parameters” value [7, 14] was “did not produce a concomitant significant increase in circulating hemoglobin level or have a significant effect”, the arterial elastance [7, 15] was “significantly improved” and the cardiac hypertrophy [7, 15] was “significantly improved; also recorded: significant improvement; also recorded: Significant reduction in cardiac”. The cardiac output [7, 15] was “significantly improved; also recorded: significant improvement”, the dPdtmax [7, 15] was “significantly improved” and the ejection fraction [7, 15] was “significantly improved; also recorded: significant improvement; also recorded: fraction improved at all doses)”. The end systolic volume [7, 15] was “significantly improved; also recorded: significant improvement”, the end-diastolic pressure [7, 15] was “significantly improved” and the relaxation time [7, 15] was “significantly improved; also recorded: significant improvement”. For the same molecule, the stroke volume [7, 15] was “significantly improved; also recorded: significant improvement”, the stroke work [7, 15] was “significantly improved; also recorded: significant improvement” and the “effectiveness of a lower dose at more frequent intervals vs a higher dose at less frequent intervals” value ([7]; daily 2, 6, 20 mg/kg vs every other day dosing) was “equally effective”. The cardiac contractility ([7]; daily for 28 days) was “significant improvement” and the “coronary artery vasodilation (coronary perfusion pressure, coronary resistance)” value [8] was “induced”.
